# Laboratory results from patent US9663496B2, “AMPK-activating heterocyclic compounds and methods for using the same” (Rigel Pharmaceuticals, Inc., priority 2010, dated 2017).
# Target: AMPK
# Assay: AMPK activation, enzyme-linked immunosorbent assay
# Type: biochemical
# Settings: EC50 for AMPK activation, ELISA
# In short: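 Activator screen performed per well-known kit methods.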
row,SMILES,EC50 [nM]
1,"N#Cc1ccc(CN2CCc3ccc(NC(=O)c4ccc(C(=O)NCc5ccc(F)cc5)cn4)cc3C2)cc1 [Compound 144, N2-(2-(4-cyanobenzyl)-1,2,3,4-tetrahydroisoquinolin-7-yl)-N5-(4-fluorobenzyl)pyridine-2,5-dicarboxamide]",500 to 1000
2,"COc1ccc(CC2CCN(C(=O)c3ccc(C(=O)NC4CCN(Cc5ccc(C#N)cc5)CC4)nc3)CC2)cc1F [Compound 146, N-(1-(4-cyanobenzyl)piperidin-4-yl)-5-(4-(3-fluoro-4-methoxybenzyl)piperidine-1-carbonyl)picolinamide]",< 500
3,"COc1cccc(CC2CCN(C(=O)c3ccc(C(=O)NC4CCN(Cc5ccc(C#N)cc5)CC4)nc3)CC2)c1 [Compound 147, N-(1-(4-cyanobenzyl)piperidin-4-yl)-5-(4-(3-methoxybenzyl)piperidine-1-carbonyl)picolinamide]",< 500
4,N#Cc1ccc(O[C@H]2CC[C@@H](NC(=O)c3ccc(C(=O)N4CCC(C(=O)c5ccc(F)cc5)CC4)cn3)CC2)cc1 [Compound 151],< 500
5,"N#Cc1ccc(CN2CCC(NC(=O)c3ccc(C(=O)N4CCC(C(=O)c5ccc(Cl)cc5)CC4)cn3)CC2)cc1 [Compound 154, 5-(4-(4-chlorobenzoyl)piperidine-1-carbonyl)-N-(1-(4-cyanobenzyl)piperidin-4-yl)picolinamide]",< 500
6,"N#Cc1ccc(CN2CCC(NC(=O)c3ccc(C(=O)N4CCC(Oc5cccc(C#N)c5)CC4)cn3)CC2)cc1 [Compound 155, N-(1-(4-cyanobenzyl)piperidin-4-yl)-5-(4-(3-cyanophenoxy)piperidine-1-carbonyl)picolinamide]",< 500
7,"N#Cc1ccc(CN2CCC(NC(=O)c3ccc(C(=O)N4CCC(Oc5ccc(C#N)c(Cl)c5)CC4)cn3)CC2)cc1 [Compound 156, 5-(4-(3-chloro-4-cyanophenoxy)piperidine-1-carbonyl)-N-(1-(4-cyanobenzyl)piperidin-4-yl)picolinamide]",< 500
8,"N#Cc1ccc(CN2CCC(NC(=O)c3ncc(C(=O)N4CCN(Cc5ccc(F)cc5)CC4)cc3C#CCNC(=O)COCCOCCOCCOCCNC(=O)CCCC[C@@H]3SC[C@@H]4NC(=O)N[C@@H]43)CC2)cc1 [Compound 159, N-(1-(4-cyanobenzyl)piperidin-4-yl)-3-(5,20-dioxo-24-((3aS,4S,6aR)-2-oxohexahydro-1H-thieno[3,4-d]imidazol-4-yl)-7,10,13,16-tetraoxa-4,19-diazatetracos-1-ynyl)-5-(4-(4-fluorobenzyl)piperazine-1-carbonyl)picolinamide]",1000 to 5000
9,"CC(C)(C)OC(=O)NCC#Cc1cc(C(=O)N2CCN(Cc3ccc(F)cc3)CC2)cnc1C(=O)NC1CCN(Cc2ccc(C#N)cc2)CC1 [Compound 164, tert-butyl 3-(2-(1-(4-cyanobenzyl)piperidin-4-ylcarbamoyl)-5-(4-(4-fluorobenzyl)piperazine-1-carbonyl)pyridin-3-yl)prop-2-ynylcarbamate]",500 to 1000
10,"N#Cc1ccc(CN2CCC(NC(=O)c3ccc(N4CCC(Oc5ccc(C#N)cc5)CC4)cn3)CC2)cc1 [Compound 165, N-(1-(4-cyanobenzyl)piperidin-4-yl)-5-(4-(4-cyanophenoxy)piperidin-1-yl)picolinamide]",< 500
11,"N#Cc1ccc(O[C@H]2CC[C@@H](NC(=O)c3ccc(C(=O)N4CCC(Oc5ccc(F)cc5)CC4)cn3)CC2)cc1 [Compound 167, N-((cis)-4-(4-cyanophenoxy)cyclohexyl)-5-(4-(4-fluorophenoxy)piperidine-1-carbonyl)picolinamide]",< 500
12,"N#Cc1ccc(O[C@H]2CC[C@H](NC(=O)c3ccc(C(=O)N4CCC(C(=O)c5ccc(F)cc5)CC4)cn3)CC2)cc1 [Compound 168, N-((trans)-4-(4-cyanophenoxy)cyclohexyl)-5-(4-(4-fluorobenzoyl)piperidine-1-carbonyl)picolinamide]",< 500
13,"N#Cc1ccc(O[C@H]2CC[C@H](NC(=O)c3ccc(C(=O)N4CCC(Oc5ccc(F)cc5)CC4)cn3)CC2)cc1 [Compound 169, N-((trans)-4-(4-cyanophenoxy)cyclohexyl)-5-(4-(4-fluorophenoxy)piperidine-1-carbonyl)picolinamide]",500 to 1000
14,"O=C(Nc1ccc(C(=O)N2CCN(Cc3ccc(F)cc3)CC2)cn1)c1ccc(-c2ccccc2)cc1 [Compound 170, N-(5-(4-(4-fluorobenzyl)piperazine-1-carbonyl)pyridin-2-yl)biphenyl-4-carboxamide]",> 10000
15,"COc1ccc(C(=O)C2CCN(C(=O)c3ccc(C(=O)N[C@H]4CC[C@@H](Oc5ccc(C#N)cc5)CC4)nc3)CC2)cc1 [Compound 171, N-((cis)-4-(4-cyanophenoxy)cyclohexyl)-5-(4-(4-methoxybenzoyl)piperidine-1-carbonyl)picolinamide]",< 500
16,"COc1ccc(OC2CCN(C(=O)c3ccc(C(=O)N[C@H]4CC[C@H](Oc5ccc(C#N)cc5)CC4)nc3)CC2)cc1 [Compound 172, N-((trans)-4-(4-cyanophenoxy)cyclohexyl)-5-(4-(4-methoxyphenoxy)piperidine-1-carbonyl)picolinamide]",< 500
17,"N#Cc1ccc(CN2CCC(C(=O)Nc3ccc(C(=O)N4CCC(Oc5ccc(F)cc5)CC4)cn3)CC2)cc1 [Compound 173, 1-(4-cyanobenzyl)-N-(5-(4-(4-fluorophenoxy)piperidine-1-carbonyl)pyridin-2-yl)piperidine-4-carboxamide]",< 500
18,"COc1ccc(OC2CCN(C(=O)c3ccc(C(=O)N[C@H]4CC[C@@H](Oc5ccc(C#N)cc5)CC4)nc3)CC2)cc1 [Compound 174, N-((cis)-4-(4-cyanophenoxy)cyclohexyl)-5-(4-(4-methoxyphenoxy)piperidine-1-carbonyl)picolinamide]",< 500
19,"N#Cc1ccc(CN2CCC(C(=O)Nc3ccc(C(=O)N4CCC(C(=O)c5ccc(F)cc5)CC4)cn3)CC2)cc1 [Compound 175, 1-(4-cyanobenzyl)-N-(5-(4-(4-fluorobenzoyl)piperidine-1-carbonyl)pyridin-2-yl)piperidine-4-carboxamide]",< 500
20,"N#Cc1ccc(O[C@H]2CC[C@@H](NC(=O)c3ccc(C(=O)N4CC[C@H](Oc5ccc(F)cc5)C4)cn3)CC2)cc1 [Compound 176, N-((cis)-4-(4-cyanophenoxy)cyclohexyl)-5-((S)-3-(4-fluorophenoxy)pyrrolidine-1-carbonyl)picolinamide]",1000 to 5000
21,"O=C(Nc1ccc(C(=O)N2CCN(Cc3ccc(F)cc3)CC2)cn1)c1ccc(Oc2ccc(F)cc2)nc1 [Compound 177, N-(5-(4-(4-fluorobenzyl)piperazine-1-carbonyl)pyridin-2-yl)-6-(4-fluorophenoxy) nicotinamide]",1000 to 5000
22,"O=C(NC1CCN(Cc2ccc(F)cc2)CC1)c1ccc(C(=O)N2CCC(Oc3ccc(C(F)(F)F)cc3)CC2)cn1 [Compound 179, N-(1-(4-fluorobenzyl)piperidin-4-yl)-5-(4-(4-(trifluoromethyl)phenoxy)piperidine-1-carbonyl)picolinamide]",< 500

# Next, values leading:
row,EC50 [nM],SMILES
1,< 500,"N#Cc1ccc(CN2CCC(NC(=O)c3ccc(C(=O)N4CCC(C(O)c5ccc(F)cc5)CC4)cn3)CC2)cc1 (stereo not drawn) [Compound 142, N-(1-(4-cyanobenzyl)piperidin-4-yl)-5-(4-((4-fluorophenyl)(hydroxy)methyl)piperidine-1-carbonyl)picolinamide]"
2,500 to 1000,"N#Cc1ccc(CN2CCC(NC(=O)c3ccc(C(=O)NCCOc4ccc(F)cc4)cn3)CC2)cc1 [Compound 149, N2-(1-(4-cyanobenzyl)piperidin-4-yl)-N5-(2-(4-fluorophenoxy)ethyl)pyridine-2,5-dicarboxamide]"
3,< 500,"N#Cc1ccc(O[C@H]2CC[C@@H](NC(=O)c3ccc(C(=O)N4CCN(Cc5ccc(F)cc5)CC4)cn3)CC2)cc1 [Compound 150, N-(cis-4-(4-cyanophenoxy)cyclohexyl)-5-(4-(4-fluorobenzyl)piperazine-1-carbonyl)picolinamide]"
4,1000 to 5000,"N#Cc1ccc(CN2CCC(NC(=O)c3ccc(C(=O)N4CCCCC4Cc4ccc(F)cc4)cn3)CC2)cc1 (stereo not drawn) [Compound 153, N-(1-(4-cyanobenzyl)piperidin-4-yl)-5-(2-(4-fluorobenzyl)piperidine-1-carbonyl)picolinamide]"
5,< 500,"N#Cc1ccc(CN2CCC(NC(=O)c3ccc(C(=O)N4CCC(Oc5ccc(C(F)(F)F)cc5)CC4)cn3)CC2)cc1 [Compound 157, N-(1-(4-cyanobenzyl)piperidin-4-yl)-5-(4-(4-(trifluoromethyl)phenoxy)piperidine-1-carbonyl)picolinamide]"
6,< 500,"N#Cc1ccc(CN2CCC(NC(=O)c3ccc(C(=O)N4CCC(Oc5ccc(F)c(F)c5)CC4)cn3)CC2)cc1 [Compound 158, N-(1-(4-cyanobenzyl)piperidin-4-yl)-5-(4-(3,4-difluorophenoxy)piperidine-1-carbonyl)picolinamide]"
7,< 500,"COc1ccc(CN2CCC(NC(=O)c3ccc(C(=O)N4CCC(C(=O)c5ccc(F)cc5)CC4)cn3)CC2)cc1 [Compound 160, 5-(4-(4-fluorobenzoyl)piperidine-1-carbonyl)-N-(1-(4-methoxybenzyl)piperidin-4-yl)picolinamide]"
8,< 500,"COc1ccc(CN2CCC(NC(=O)c3ccc(C(=O)N4CCC(Oc5ccc(F)cc5)CC4)cn3)CC2)cc1 [Compound 161, 5-(4-(4-fluorophenoxy)piperidine-1-carbonyl)-N-(1-(4-methoxybenzyl)piperidin-4-yl)picolinamide]"
9,< 500,"N#Cc1ccc(CN2CCC(NC(=O)c3ccc(C(=O)NC4CCN(c5ccc(C#N)cc5)CC4)cn3)CC2)cc1 [Compound 166, N2-(1-(4-cyanobenzyl)piperidin-4-yl)-N5-(1-(4-cyanophenyl)piperidin-4-yl)pyridine-2,5-dicarboxamide]"
10,< 500,"COc1ccc(C(=O)C2CCN(C(=O)c3ccc(C(=O)NC4CCN(Cc5ccc(F)cc5)CC4)nc3)CC2)cc1 [Compound 178, N-(1-(4-fluorobenzyl)piperidin-4-yl)-5-(4-(4-methoxybenzoyl)piperidine-1-carbonyl)picolinamide]"
11,< 500,"O=C(NC1CCN(Cc2ccc(F)cc2)CC1)c1ccc(C(=O)N2CCC(Oc3ccc(F)cc3)CC2)cn1 [Compound 180, N-(1-(4-fluorobenzyl)piperidin-4-yl)-5-(4-(4-fluorophenoxy)piperidine-1-carbonyl)picolinamide]"
